Reference: patent US20210391038A1, “SPECIFICALLY-SHAPED CRYSTAL OF COMPOUND AND METHOD FOR PRODUCING SAME” (TOWA PHARMACEUTICAL CO., LTD., priority 2018, published 2021)
Where two headings read alike, the source gives them in different places.

Columns and labels:
Format in all cases: physicochemical
[1] = Specific surface area (BET fluid process); settings: nitrogen, trihydrate
Protocol: The particle size distribution was measured in a dry manner using a spray particle size distribution analyzer AEROTRAC LDSA-SPR3500A manufactured by Microtrac Inc. The particle size distribution in Examples 2 and 7 was measured in a dry manner using a laser diffraction particle size distribution measurement MASTERSIZER 3000 manufactured by Malvern Panalytical Ltd. SEM images were measured using a scanning electron microscope JSM-IT100 manufactured by JEOL Ltd. Light microscope images were measured using an upright microscope BX53M manufactured by Olympus Corporation and a microscope digital camera DP74 manufactured by Olympus Corporation. […] The powder X-ray diffraction (XRD) was measured using a desktop X-ray diffraction device MiniFlex300 manufactured by Rigaku Corporation. The specific surface area was measured by the BET fluid process (gas used: pure nitrogen) using a fully automatic specific surface area measuring device Macsorb HM-1208 manufactured by Mountech Co., Ltd. The moisture content was measured using a trace moisture measuring device AQ-2200 manufactured by […] SANGYO Co., Ltd. The dissolution profile was measured using μDISS Profiler manufactured by Pion Inc. Centrifugal classification was performed using a high-efficiency precision forced air classifier Lab Calssiel N-01 manufactured by SEISHIN […] […]

[2] = Measurement of dissolution profile (μDISS Profiler); settings: 30 mg in 10 mL phosphate buffer pH 6.8, 37° C., 300 rpm
Protocol: The dissolution profile is described by the zero-order model, the first-order model, the Weibull model, the Higuchi model, the Hixson-Crowell model, the Korsmeyer-Peppas model, the Baker-Lonsdale model, the Hopfenberg model, and the like. The Weibull model is represented by the following formula: […]
The particle size distribution was measured in a dry manner using a spray particle size distribution analyzer AEROTRAC LDSA-SPR3500A manufactured by Microtrac Inc. The particle size distribution in Examples 2 and 7 was measured in a dry manner using a laser diffraction particle size distribution measurement MASTERSIZER 3000 manufactured by Malvern Panalytical Ltd. SEM images were measured using a scanning electron microscope JSM-IT100 manufactured by JEOL Ltd. Light microscope images were measured using an upright microscope BX53M manufactured by Olympus Corporation and a microscope digital camera DP74 manufactured by Olympus Corporation. […] The powder X-ray diffraction (XRD) was measured using a desktop X-ray diffraction device MiniFlex300 manufactured by Rigaku Corporation. The specific surface area was measured by the BET fluid process (gas used: pure nitrogen) using a fully automatic specific surface area measuring device Macsorb HM-1208 manufactured by Mountech Co., Ltd. The moisture content was measured using a trace moisture measuring device AQ-2200 manufactured by […] […]

[3] = Particle size distribution (d50, sharpness index); parameters: key to sharpness index of the crystal thus obtained / sharpness index of the fine powders: calculated by formula from d10, d50, d90; 1.0 = most uniform particle size; settings: for d50: samples of dissolution test (Table 4)
Description: d10 in the present description is a value obtained from a particle size distribution analyzer, and represents a particle size of a particle corresponding to 10% of accumulation from the smaller particle side in the particle size distribution based on the volume.
d50 in the present description is a value obtained from a particle size distribution analyzer, and represents a particle size of a particle corresponding to 50% of accumulation from the smaller particle side in the particle size distribution based on the volume.
“Sharpness index” in the present description is an index representing the uniformity of a particle size of a particle in a powder, and a sharpness index of 1.0 represents a powder having the most uniform particle size. The closer the sharpness index is to 1.0, the more the particle size of the powder is uniform. Specifically, the sharpness index represents a value calculated using the following formula from the values of d10, d50, and d90 measured by a particle size distribution analyzer:
Images for measuring the number of particles were obtained by a scanner GT-X830 manufactured by SEIKO EPSON CORPORATION. The powder X-ray diffraction (XRD) was measured using a desktop X-ray diffraction device MiniFlex300 manufactured by Rigaku Corporation. […] The particle strength was measured using a particle hardness measuring device NEW GRANO manufactured by OKADA SEIKO CO., LTD. […] The purity of a compound was measured by a high performance liquid chromatograph (LC-20A) manufactured by Shimadzu Corporation.

[4] = Sphericity from SEM images (ImageJ); parameters: key: 1 = true sphere; closer to 1 = more spherical; mean of ≥5 particles; settings: trihydrate; for sphericity of the spherulite: SEM image analysis, mean of particles
[5] = Particle strength
Description: Furthermore, a polycrystal with a high particle density also has a high particle strength. When a polycrystal, particularly a spherulite, is used as a raw material for production of drugs, a problem occurs in which wear in a formulation step leads to deterioration of yield or quality or both, and a polycrystal with a high particle strength has an advantage in this regard. When a specifically-shaped crystal obtained by the present invention is a polycrystal, the particle strength is preferably 1.0 MPa or more, more preferably 1.5 MPa or more, still more preferably 2.0 MPa, yet more preferably 2.5 MPa or more, and particularly preferably 3.0 MPa or more. The particle strength is calculated by measuring the force at which a particle breaks when load is applied to one particle and the particle size. Specifically, the particle strength is calculated by the following formula in accordance with JIS R 1639-5. Examples of a measuring device include a particle hardness measuring device NEW GRANO manufactured by OKADA SEIKO CO., LTD. and a micro compression testing machine MCT manufactured by Shimadzu Corporation. […]
The particle strength of the spherulite of esomeprazole magnesium trihydrate obtained in Example 2, the spherulite of esomeprazole magnesium trihydrate obtained in Example 5, and the spherulite of esomeprazole magnesium trihydrate obtained in Example 6 was measured.

[6] = calculated from d10, d50, d90, trihydrate
[7] = dry particle size distribution, volume based, trihydrate

Compound	Specific surface area [1] [m^2/g]	dissolution compared with the non-spherulite [2]	sharpness index of the crystal thus obtained [3, 6]	d50 of the crystal thus obtained [3, 7] [μm]	d50 ([3]; trihydrate) [μm]	sphericity of the spherulite [4]	sphericity of the non-spherulite ([4]; non-spherulite crystals)	Particle strength [5] [MPa]	d50 of the crystal thus obtained [3]	sharpness index of the crystal thus obtained [3]	Particle strength ([5]; trihydrate) [MPa]
COc1ccc2[n-]c([S@@+]([O-])Cc3ncc(C)c(OC)c3C)nc2c1.COc1ccc2[n-]c([S@@+]([O-])Cc3ncc(C)c(OC)c3C)nc2c1.O.O.O.[Mg+2] [Example 8(1), esomeprazole magnesium trihydrate]	22.6	more rapid dissolution	2.2	33.0	33.0	0.95±0.03	–	–	–	–	–
COc1ccc2[n-]c([S@@+]([O-])Cc3ncc(C)c(OC)c3C)nc2c1.COc1ccc2[n-]c([S@@+]([O-])Cc3ncc(C)c(OC)c3C)nc2c1.O.O.O.[Mg+2] [Ground product of non-spherulite, esomeprazole magnesium trihydrate]	44.0	–	–	–	5.1	–	0.45±0.23	–	–	–	–
COc1ccc2[n-]c([S@@+]([O-])Cc3ncc(C)c(OC)c3C)nc2c1.COc1ccc2[n-]c([S@@+]([O-])Cc3ncc(C)c(OC)c3C)nc2c1.O.O.O.[Mg+2] [Example 5, esomeprazole magnesium trihydrate]	–	–	1.4	149.9	–	0.89±0.05	–	2.3 ± 0.4	–	–	–
COc1ccc2[n-]c([S@@+]([O-])Cc3ncc(C)c(OC)c3C)nc2c1.COc1ccc2[n-]c([S@@+]([O-])Cc3ncc(C)c(OC)c3C)nc2c1.O.O.O.[Mg+2] [Example 6, esomeprazole magnesium trihydrate]	–	–	–	–	–	0.96±0.01	–	–	91.5	1.45	2.9 ± 0.5
